Earlier results as cited in patent publication US20100285123A1, “Controlled Release Dosage Formulation of Duloxetine” (priority 2005, published 2010).
Counter-ions that a name gives are not always drawn.

Tests used:
[1] = patients, acute treatment of major depression
[2] = gastric pH

| SMILES | headache reported [1] | incidence of nausea [1] | insomnia reported [1] | patients who did not experience any treatment experienced related adverse event (110 of 1279 patients) | patients discontinued due to adverse events (218 of 1279 patients, major depression, long-term) | headache, patients reporting (389 of 1279 patients) | insomnia, patients reporting (400 of 1279 patients) | nausea, patients reporting (435 of 1279 patients) | patients who experienced at least one or more treatment experienced adverse event (1169 of 1279 patients) | stability in acidic environment [2] |
| --- | --- | --- | --- | --- | --- | --- | --- | --- | --- | --- |
| Fc1ccc([C@@H]2CCNC[C@H]2COc2ccc3c(c2)OCO3)cc1 [Paroxetine] | 11.5% | 16.1% | 8.0% |  |  |  |  |  |  |  |
| CNCC[C@H](Oc1cccc2ccccc12)c1cccs1 [Duloxetine hydrochloride] |  |  |  | 8.6% | 17.0% | 30.4% | 31.3% | 34.0% | 91.4% | unstable |
